The source of these data is patent US6030993A, “2-hydroxypropionic acid derivative and its manufacturing method” (Sang Sup JEW, priority 1996, dated 2000).

The term LD50 denotes the dose expected to kill half of the subjects tested. A higher LD50 goes with lower toxicity.

Entries after “also recorded” stand apart in the source; their conditions may differ.

Test system in one data set: not given
Experiment: not given
Particulars: phase II clinical trials, discontinued; cited from earlier work.
As for `CCOC(=O)[C@@]1(CCCCCCOc2ccc(Cl)cc2)CO1` [etomoxir], the “side effects associated with prolonged administration” value is reported as “enlarged heart; also recorded: toxicity in the liver”.

The next data set deals with diabetes-induced Sprague-Dawley rats. In words: Blood glucose lowering effect in streptozotocin diabetes-induced rats, oral. Particulars: Rattus norvegicus; STZ (45 mg/kg) diabetic male Sprague-Dawley rats; 50 mg/kg oral in 30% ethanol; smallest blood glucose of 90, 120 and 180 min; read-out: Blood glucose lowering rate. Format: in vivo. Here is the method: Two groups of male diabetes-induced Sprague-Dawley rats (each of 4-5 rats weighing about 250 g per group) were used for this experiment. 45 mg/kg of streptozotocin (STZ) dissolved in 0.1M citrate buffer (pH 4.5, 0-4° C.) was injected to the tail vein of fasted rats for 1 day. After elapse of 7 days, their blood glucose concentration were measured and animals having the blood serum concentration of more than 350 mg/dl were used as diabetes-induced rats for this experiment. The rats were intravenously administered at a daily dose of 1 ml/kg, while the normal control group received equal volume of 0.1M citrate buffer.
7 days after being treated with streptozotocin, diabetes-induced rats were orally administered at a dose of 50 mg/kg of the compounds prepared by the procedures of Examples 1-13. Then, at time intervals of 90 mins, 120 mins and 180 mins, their blood glucose concentrations were measured and the smallest values were taken. The compounds of Example 1-13 were dissolved in 30% ethanol until its final concentration became 2 ml/kg, while the control group was orally received equal volume of 30% ethanol.
Significant difference between two groups was determined by ANOVA test, together with a post hoc test using Newman-Keuls test.
Take `CCOC(=O)C(O)(CO)CCCCCCOCc1ccccc1` (stereo not drawn) [Example 1, Ethyl-2,3-dihydroxy-2-(6-benzoxy)hexylpropionate]: the inhibition in vivo at 50 mg/kg worked out at 38.5%.

Consider `CCOC(=O)C(O)(CO)CCCCCCOCc1ccc(OC)cc1` (stereo not drawn) [Example 2, Ethyl-2,3-dihydroxy-2-[6-(4-methoxybenzoxy)hexyl]propionate], for which the inhibition in vivo at 50 mg/kg is 10%. As for `CCOC(=O)C(O)(CO)CCCCCCOc1ccc(Cl)cc1` (stereo not drawn) [Example 3, Ethyl-2,3-dihydroxy-2-[6-(4-chlorophenoxy)hexyl]propionate], the inhibition in vivo at 50 mg/kg was 23%. Still for that read-out and setting: the value for `CCOC(=O)C(O)(CO)CCCCCCOCc1ccc(C)o1` (stereo not drawn) [Example 5, Ethyl-2,3-dihydroxy-2-[6-(5-methyl-2-furanmethoxy)hexyl]propionate] was 22%; that for `CCOC(=O)C(O)(CO)CCCCCCOCCc1cccs1` (stereo not drawn) [Example 6, Ethyl-2,3-dihydroxy-2-[6-(2-thiophenethoxy)hexyl]propionate] was 1.2%; that for `CCOC(=O)C(O)(CO)CCCCCCOCc1ccc(Cl)s1` (stereo not drawn) [Example 7, Ethyl-2,3-dihydroxy-2-[6-(5-chloro-2-thiophenmethoxy)hexyl]propionate] was 19.2%. Same read-out and setting: then `CCOC(=O)C(O)(CO)CCCCCCOCc1sccc1Cl` (stereo not drawn) [Example 8, Ethyl-2,3-dihydroxy-2-[6-(3-chloro-2-thiophenmethoxy)hexyl]propionate], with 26%; and `CCOC(=O)C(O)(CBr)CCCCCCOc1ccc(Cl)cc1` (stereo not drawn) [Example 9], with 22%; and `CCOC(=O)C(O)(CCCCCCOCc1ccccc1)COS(=O)(=O)c1ccc(C)cc1` (stereo not drawn) [Example 10, Ethyl 2-hydroxy-3-(4-methylbenzenesulfoxy)-2-[6-benzoxyhexyl]propionate], with 34.1%. On the same count and under the same terms, then `CCOC(=O)C(O)(CBr)CCCCCCOCCc1cccs1` (stereo not drawn) [Example 11, Ethyl 2-hydroxy-3-bromo-2-[6-(2-thiophenethoxy)hexyl]propionate], with 13%; and `CCOC(=O)C(O)(CBr)CCCCCCOCc1ccc(Cl)s1` (stereo not drawn) [Example 12, Ethyl 2-hydroxy-3-bromo-2-[6-(5-chlorothiophenemethoxy)hexyl]propionate], with 26.4%. Turning to `CCOC(=O)C(O)(CBr)CCCCCCOCc1sccc1Cl` (stereo not drawn) [Example 13, Ethyl 2-hydroxy-3-bromo-2-[6-(3-chlorothiophenemethoxy)hexyl]propionate], the inhibition in vivo at 50 mg/kg stood at 19.3%.

Staying with this data set, now noted: STZ (45 mg/kg) diabetic male Sprague-Dawley rats; 50 mg/kg oral in 30% ethanol; smallest blood glucose of 90, 120 and 180 min.
Take `CCOC(=O)C(O)(CO)CCCCCCn1nc(C)cc1C` (stereo not drawn) [Example 4, Ethyl-2,3-dihydroxy-2-[6-(3,5-dimethylpyrazol)hexyl]propionate]: the “Blood glucose lowering rate” value was 19.8%.

Test system in a further data set: not listed separately
In words: Acute oral toxicity test in rats. To be noted: rat, in vivo, mature rats 200-250 g, dissolved in ethylacetate. As for the experimental part: The acute toxicity tests on rats were performed using the compound prepared by the procedure of the Example 1. Mature rats weighing 200-250 g were orally given the compound of the Example 1 dissolved in ethylacetate in parallel with its gradually increasing concentration. Then, LD50 was calculated by number of killed animals.
With `CCOC(=O)C(O)(CO)CCCCCCOCc1ccccc1` (stereo not drawn) [Example 1, Ethyl-2,3-dihydroxy-2-(6-benzoxy)hexylpropionate], the LD50 was found to be 482 mg/kg.
